We go through 14 compounds from paper PMC9176662, “Design, synthesis, molecular modeling and biological evaluation of novel Benzoxazole-Benzamide conjugates via a 2-Thioacetamido linker as potential anti-proliferative agents, VEGFR-2 inhibitors and apoptotic inducers” (Journal of Enzyme Inhibition and Medicinal Chemistry, 2022).

Structures are written as SMILES.

Series [1] relates to WI-38 cells. Briefly: Cytotoxicity against normal fibroblasts, SRB assay, WI-38. In kind it is cell-based. The settings on record: normal human fibroblasts, 72 h, mean ± SD of three separate experiments. The source says: (§1) Several of these derivatives were reported as acting as competitive inhibitors of different tyrosine kinases, with potent cytotoxic activity against various cell lines[58]^,[59]. […] Thus, in this study a novel series of benzoxazole-benzamide conjugates was initially evaluated for their potential anti-cancer activity against colon cancer cell line (HCT-116), breast cancer cell line (MCF-7) and normal human fibroblasts (WI-38), using the Sulforhodamine B colorimetric (SRB) assay.
(§2) 2.1. Anti-proliferative activity against HCT-116 and MCF-7 human cancer cells lines.
(§3) The sulforhodamine B (SRB) assays were performed according to Skehan et al..
(§4) Briefly, exponentially growing cells were trypsinized, counted and seeded at the appropriate densities (5000 cells/100 μL/ well) into 96-well microtiter plates. Cells were incubated in a humidified atmosphere at 37 °C for 24 h. Then, the cells were exposed to the tested compounds at the desired concentrations (0.01, 0.1, 1, 10, and 100 μM) or to 1% dimethyl sulfoxide (DMSO) for 72 h. At the end of the treatment period, the media were removed, and the cells were fixed with 10% trichloroacetic acid at 4 °C for 1 h. Following, the cells were washed with tap water four times and incubated with SRB 0.4% for 30 min. Excess dye was removed by washing repeatedly with 1% (vol/vol) acetic acid. The protein-bound dye was dissolved in 10 mM Tris base solution for (optical density) OD determination at 510 nm using a Spectra Max plus Microplate Reader (Molecular Devices, CA). Cell viability was expressed relative to the untreated control cells. […]
For orientation: In SRB staining, fixed cells bind dye roughly in proportion to their protein.

Series [2] concerns MCF-7 cells. Nature of the series: Anti-proliferative activity, SRB assay, MCF-7. In kind it is cell-based, human. The settings on record: for IC50: Homo sapiens, SRB assay, 72 h exposure, mean ± SD of three separate experiments; for MCF-7 SI (selectivity index): ratio of IC50 for normal cells (WI-38) to IC50 for MCF-7.
Text: as §1, §2, §3, §4

For series [3], the system named is HCT-116 cells. Nature of the series: Anti-proliferative activity, SRB assay, HCT-116. It counts as cell-based, human. The settings on record: for IC50: Homo sapiens, SRB assay, 72 h exposure, mean ± SD of three separate experiments; for HCT-116 SI (selectivity index): ratio of IC50 for normal cells (WI-38) to IC50 for HCT-116.
Text: as §1, §2, §3, §4

Series [4] has as its target T1, VEGFR-2 Protein Kinase (Homo sapiens, UniProt P35968).
T1 construct: It includes active VEGFR-2 kinase; purchased HTScan VEGF Receptor-2 Kinase Assay Kit
Briefly: VEGFR-2 inhibitory activity (HTScan VEGF Receptor-2 Kinase Assay Kit, ELISA). In kind it is biochemical. The settings on record: mean of three individual experiments. Here is the method:
2.2. VEGFR-2 Inhibitory activity
VEGFR-2 ELISA (Enzyme-Linked Immunosorbent Assay) kits (HTScan® VEGF Receptor-2 […]
phospho-tyrosine antibody) for detection of the phosphorylated form of the substrate peptide).
On a 96-well plate, a particular VEGFR-2 antibody was seeded and 100 μL of the normal solution or the tested compound tested was applied, incubated at room temperature for 2.5 h and washed. Then, 100 μL of the prepared biotin antibody was added, incubated for an additional 1 h at room temperature and washed. Following, 100 μL of streptavidin solution was added at room temperature, incubated for 45 minutes and then, 100 μL of TMB Substrate solution was applied and incubated at room temperature for 30 minutes. Finally, 50 μL stop solution was added and the absorption was measured at 450 nm instantly. The standard curve, the X -axis concentrations, and the Y-axis absorbance were drawn. […]
In general terms: An ELISA detects its analyte on a solid surface through an enzyme-linked reagent.

One may read the IC50 as the concentration at which inhibition is half-maximal. One may read the melting point as the temperature of the solid-liquid transition.

T1 sequence (P35968 20-1356): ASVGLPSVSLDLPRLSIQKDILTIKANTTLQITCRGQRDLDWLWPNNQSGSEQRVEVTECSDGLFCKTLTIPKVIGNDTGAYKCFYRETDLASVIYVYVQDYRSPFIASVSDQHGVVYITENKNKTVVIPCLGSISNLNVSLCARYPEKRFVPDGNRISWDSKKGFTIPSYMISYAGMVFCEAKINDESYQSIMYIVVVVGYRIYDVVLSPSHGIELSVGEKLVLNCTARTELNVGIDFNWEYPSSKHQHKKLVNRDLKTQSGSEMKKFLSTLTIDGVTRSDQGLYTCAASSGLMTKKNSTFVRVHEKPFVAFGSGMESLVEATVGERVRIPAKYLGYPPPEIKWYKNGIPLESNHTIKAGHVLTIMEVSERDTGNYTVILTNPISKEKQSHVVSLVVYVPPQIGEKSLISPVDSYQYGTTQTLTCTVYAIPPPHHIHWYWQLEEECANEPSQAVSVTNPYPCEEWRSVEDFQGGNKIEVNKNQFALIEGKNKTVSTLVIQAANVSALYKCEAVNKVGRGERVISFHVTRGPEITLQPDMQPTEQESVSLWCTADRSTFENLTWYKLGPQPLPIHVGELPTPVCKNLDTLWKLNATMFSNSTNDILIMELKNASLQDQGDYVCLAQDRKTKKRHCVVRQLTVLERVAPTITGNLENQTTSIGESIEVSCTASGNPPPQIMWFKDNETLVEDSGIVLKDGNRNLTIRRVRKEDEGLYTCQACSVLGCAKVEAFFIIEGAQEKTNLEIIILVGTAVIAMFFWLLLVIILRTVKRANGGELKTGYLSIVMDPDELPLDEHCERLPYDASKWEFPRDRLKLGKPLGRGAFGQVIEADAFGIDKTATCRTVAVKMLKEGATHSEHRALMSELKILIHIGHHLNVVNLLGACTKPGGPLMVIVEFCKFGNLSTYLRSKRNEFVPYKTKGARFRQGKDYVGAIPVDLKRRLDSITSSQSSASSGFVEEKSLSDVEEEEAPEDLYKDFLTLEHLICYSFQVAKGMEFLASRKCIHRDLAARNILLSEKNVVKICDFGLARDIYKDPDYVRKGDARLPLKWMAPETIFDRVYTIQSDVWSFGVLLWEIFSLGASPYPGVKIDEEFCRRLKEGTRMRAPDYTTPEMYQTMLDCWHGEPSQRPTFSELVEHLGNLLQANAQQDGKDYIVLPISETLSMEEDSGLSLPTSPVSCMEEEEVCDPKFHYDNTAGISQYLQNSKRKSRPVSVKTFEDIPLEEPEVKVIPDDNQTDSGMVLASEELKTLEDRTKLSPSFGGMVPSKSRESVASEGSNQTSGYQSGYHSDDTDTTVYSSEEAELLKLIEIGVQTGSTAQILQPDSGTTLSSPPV

The compound `O=C(CSc1nc2ccccc2o1)Nc1ccc(C(=O)Nc2ccccc2)cc1` [Compound 2] yielded a melting point of 250 to 252 °C. In series [1], this compound displayed an IC50 of 56.7 ± 0.36 µM. Also, the midpoint of inhibition in series [2] (MCF7, 72 h), the IC50, lay at 11.7 ± 0.014 µM. The “MCF-7 SI (selectivity index)” value in series [2] is given as 4.8. In series [3] (HCT-116, 72 h), this compound registered a half-maximal inhibitory concentration (IC50) of 18.5 ± 0.014 µM. Also, the “HCT-116 SI (selectivity index)” value in series [3] amounted to 3.0.
In turn, `O=C(CSc1nc2ccccc2o1)Nc1ccc(C(=O)Nc2ccc(Cl)cc2)cc1` [Compound 3] had a melting point of 238 to 240 °C. The compound further gave an IC50 in series [1] of 59.3 ± 0.45 µM. In series [2] (MCF7, 72 h), this compound gave a concentration for half-maximal inhibition (IC50) of 22.7 ± 0.008 µM. Besides, the “MCF-7 SI (selectivity index)” value in series [2] amounted to 2.6. Moreover, the IC50 in series [3] (HCT-116, 72 h) stood at 24.2 ± 0.019 µM. The “HCT-116 SI (selectivity index)” value in series [3] is recorded as 2.4.
`COc1ccc(NC(=O)c2ccc(NC(=O)CSc3nc4ccccc4o3)cc2)cc1` [Compound 4] registered a melting point of 260 to 262 °C. The half-maximal inhibitory concentration (IC50) in series [1] amounted to 51.5 ± 0.4 µM. In series [2] (MCF7, 72 h), this compound had a 50% inhibitory concentration (IC50) of 23.6 ± 0.015 µM. Further, the “MCF-7 SI (selectivity index)” value in series [2] was 2.2. The half-maximal inhibitory concentration (IC50) in series [3] (HCT-116, 72 h) came to 23.2 ± 0.012 µM. Also, in series [3], the “HCT-116 SI (selectivity index)” value is 2.2.
For `Cc1ccc2oc(SCC(=O)Nc3ccc(C(=O)NC4CCCCC4)cc3)nc2c1` [Compound 5], the melting point was in the range of 256 to 258 °C. In addition, half-maximal inhibition in series [1] (IC50) required 85.4 ± 0.55 µM. Further, in series [2] (MCF7, 72 h), half-maximal inhibition (IC50) was put at 12.4 ± 0.007 µM. Besides, the “MCF-7 SI (selectivity index)” value in series [2] is given as 6.9. The compound further showed a concentration for half-maximal inhibition (IC50) in series [3] (HCT-116, 72 h) of 20.9 ± 0.025 µM. Further, the “HCT-116 SI (selectivity index)” value in series [3] was determined as 4.0.
Compound `Cc1ccc2oc(SCC(=O)Nc3ccc(C(=O)Nc4ccccc4)cc3)nc2c1` [Compound 6] registered a melting point of 240 to 242 °C. It took 124.6 ± 0.7 µM to reach half-maximal inhibition in series [1] (IC50). Further, the half-inhibitory concentration (IC50) in series [2] (MCF7, 72 h) amounted to 19.1 ± 0.006 µM. Moreover, the “MCF-7 SI (selectivity index)” value in series [2] is 6.5. In addition, the IC50 in series [3] (HCT-116, 72 h) was 30.7 ± 0.011 µM. In addition, the “HCT-116 SI (selectivity index)” value in series [3] was 4.0.
The compound `Cc1ccc2oc(SCC(=O)Nc3ccc(C(=O)Nc4ccc(Cl)cc4)cc3)nc2c1` [Compound 7] had a melting point of 265 to 267 °C. For the same compound, the 50% inhibitory concentration (IC50) in series [1] was determined as 128.2 ± 0.75 µM. The half-maximal inhibitory concentration (IC50) in series [2] (MCF7, 72 h) was determined as 24 ± 0.011 µM. In addition, in series [2], the “MCF-7 SI (selectivity index)” value is 5.3. Further, it took 32 ± 0.002 µM to reach half-maximal inhibition in series [3] (HCT-116, 72 h) (IC50). Further, the “HCT-116 SI (selectivity index)” value in series [3] is 4.0.
For the compound `COc1ccc(NC(=O)c2ccc(NC(=O)CSc3nc4cc(C)ccc4o3)cc2)cc1` [Compound 8], the melting point is 258 to 260 °C. Moreover, half-maximal inhibition in series [1] (IC50) was put at 135.4 ± 0.85 µM. The compound further returned an IC50 in series [2] (MCF7, 72 h) of 22.3 ± 0.004 µM. Also, in series [2], the “MCF-7 SI (selectivity index)” value was 6.0. In series [3] (HCT-116, 72 h), the 50% inhibitory concentration (IC50) was determined as 28.8 ± 0.01 µM. In series [3], the “HCT-116 SI (selectivity index)” value stood at 4.7.
For the compound `O=C(CSc1nc2cc(Cl)ccc2o1)Nc1ccc(C(=O)NC2CCCCC2)cc1` [Compound 9], the melting point lay within 260 to 262 °C. In series [1], this compound returned an IC50 of 74.6 ± 0.53 µM. For the same compound, inhibition in series [2] (MCF7, 72 h) was half-maximal at 12.3 ± 0.008 µM (IC50). Further, in series [2], the “MCF-7 SI (selectivity index)” value is 6.0. The same compound displayed a concentration for half-maximal inhibition (IC50) in series [4] of 0.649 ± 0.008 µM. Moreover, in series [3] (HCT-116, 72 h), the half-inhibitory concentration (IC50) worked out at 17.1 ± 0.008 µM. Besides, in series [3], the “HCT-116 SI (selectivity index)” value was 4.4.
The compound `O=C(CSc1nc2cc(Cl)ccc2o1)Nc1ccc(C(=O)Nc2ccccc2)cc1` [Compound 10] yielded a melting point of 245 to 247 °C. The compound further gave a half-inhibitory concentration (IC50) in series [1] of 125.5 ± 0.72 µM. This compound also registered a concentration for half-maximal inhibition (IC50) in series [2] (MCF7, 72 h) of 16.1 ± 0.011 µM. Further, the “MCF-7 SI (selectivity index)” value in series [2] is listed as 7.8. Besides, in series [4], the IC50 was determined as 0.704 ± 0.009 µM. The compound also registered an IC50 in series [3] (HCT-116, 72 h) of 16.7 ± 0.012 µM. For the same compound, in series [3], the “HCT-116 SI (selectivity index)” value is given as 7.5.
In turn, `COc1ccc(NC(=O)c2ccc(NC(=O)CSc3nc4cc(Cl)ccc4o3)cc2)cc1` [Compound 12] came in with a melting point of 266 to 268 °C. This compound also returned a concentration for half-maximal inhibition (IC50) in series [1] of 126.2 ± 0.75 µM. Besides, the IC50 in series [2] (MCF7, 72 h) worked out at 9.4 ± 0.016 µM. Besides, the “MCF-7 SI (selectivity index)” value in series [2] came out at 13.4. The same compound showed a 50% inhibitory concentration (IC50) in series [4] of 0.385 ± 0.005 µM. In addition, the IC50 in series [3] (HCT-116, 72 h) was 10.4 ± 0.01 µM. Besides, in series [3], the “HCT-116 SI (selectivity index)” value was 12.1.
In turn, `O=C(CSc1nc2ccccc2o1)Nc1ccc(C(=O)NNC(=O)c2ccccc2)cc1` [Compound 13] showed a melting point of 270 to 272 °C. Also, the IC50 in series [1] came to 91.3 ± 0.6 µM. This compound returned an IC50 in series [2] (MCF7, 72 h) of 9 ± 0.005 µM. Also, the “MCF-7 SI (selectivity index)” value in series [2] stood at 10.1. In series [3] (HCT-116, 72 h), this compound yielded a 50% inhibitory concentration (IC50) of 9.1 ± 0.005 µM. Besides, the “HCT-116 SI (selectivity index)” value in series [3] is given as 10.0.
As to `Cc1ccc2oc(SCC(=O)Nc3ccc(C(=O)NNC(=O)c4ccccc4)cc3)nc2c1` [Compound 14], the melting point was in the range of 250 to 252 °C. The same compound had a half-inhibitory concentration (IC50) in series [1] of 96.5 ± 0.65 µM. Further, 9.5 ± 0.009 µM corresponded to half-maximal inhibition in series [2] (MCF7, 72 h) (IC50). The “MCF-7 SI (selectivity index)” value in series [2] stood at 10.1. Moreover, inhibition in series [3] (HCT-116, 72 h) was half-maximal at 9.7 ± 0.013 µM (IC50). The “HCT-116 SI (selectivity index)” value in series [3] is 9.9.
Regarding `O=C(CSc1nc2cc(Cl)ccc2o1)Nc1ccc(C(=O)NNC(=O)c2ccccc2)cc1` [Compound 15], the melting point lay within 277 to 279 °C. The same compound registered an IC50 in series [1] of 131.5 ± 0.8 µM. The compound further yielded an IC50 in series [2] (MCF7, 72 h) of 15.3 ± 0.01 µM. In series [2], the “MCF-7 SI (selectivity index)” value came to 8.6. The half-inhibitory concentration (IC50) in series [4] is 0.597 ± 0.007 µM. Also, in series [3] (HCT-116, 72 h), the concentration for half-maximal inhibition (IC50) came to 12.9 ± 0.014 µM. In series [3], the “HCT-116 SI (selectivity index)” value came out at 10.2.
On to `CNC(=O)c1cc(Oc2ccc(NC(=O)Nc3ccc(Cl)c(C(F)(F)F)c3)cc2)ccn1` [Sorafenib, reference compound], for which the IC50 was determined as 10.5 ± 0.014 µM in series [2] (MCF7) and 11.6 ± 0.012 µM in series [3] (HCT-116).
